# Source: US5198533A, “LHRH antagonists” (The Administrators of the Tulane Educational Fund, priority 1988, dated 1993)
# Where a SMILES comes first, the peptide text is derived from it. [ ]: non-standard residue; d: D form. dPhe(4-Cl) = N[C@H](Cc1ccc(Cl)cc1)C(=O)O; d2Nal = N[C@H](Cc1ccc2ccccc2c1)C(=O)O; dCit = NC(=O)NCCC[C@@H](N)C(=O)O; d3Pal = N[C@H](Cc1cccnc1)C(=O)O
# System: edema of the face and extremities
# Test: edematogenic test of Schmidt, et al.
# Assay type: in vivo, rat
# Details: 1.5 mg/kg s.c. once a day on two consecutive days
# Protocol: In the edematogenic test of Schmidt, et al. (Contraception, 29, 283-289, 1984), however, a marked difference can be found between the control peptides and the peptides of the present invention. The control […] 1.50 mg/kg. No such reaction can be observed with the peptides of the present invention when given at a subcutaneous dose of 1.5 mg/kg.
# In the tests as run, the rats were assigned to three groups of […] per group per compound tested. Comparison was made with a known prior art compound designated ORG 30276 namely (N-Ac-D-p-Cl-Phe^1,2,D-Trp^3,D-Arg^6,D-Ala^10)-LHRH. The groups were injected subcuntaneously once a day on two consecutive days with the LHRH antagonists at a dose level of 1.5 mg/kg. One control group was injected with diluent only. The rats were observed during five hours each day. Reactions of the rats were classified as follows: NR no apparent reaction, PR partial responders: edema of the nasal and paranasal area, FR full responders: facial edema with edematous extremities.
compound,measurement,setting,value
"CC(=O)N[C@H](Cc1ccc2ccccc2c1)C(=O)N[C@H](Cc1ccc(Cl)cc1)C(=O)N[C@H](Cc1cccnc1)C(=O)N[C@@H](CO)C(=O)N[C@@H](Cc1ccc(O)cc1)C(=O)N[C@H](CCCNC(N)=O)C(=O)N[C@@H](CC(C)C)C(=O)N[C@@H](CCCNC(=N)N)C(=O)N1CCC[C@H]1C(=O)N[C@H](C)C(N)=O [EX XXVI, Ac-D-Nal-D-Phe(4-Cl)-D-Pal(3)-Ser-Tyr-D-Cit-Leu-Arg-Pro-D-AlaNH2] (Ac-[d2Nal][dPhe(4-Cl)][d3Pal]SY[dCit]LRP[dA]-NH2)","2nd Day PR (number of rats, partial responders: edema of the nasal and paranasal area)",* = very light edema of the face,0
same,"1st Day FR (number of rats, full responders: facial edema with edematous extremities)",observed five hours each day,0
same,"1st Day NR (number of rats, no apparent reaction)",observed five hours each day,8
same,"1st Day PR (number of rats, partial responders: edema of the nasal and paranasal area)",observed five hours each day,0
same,"2nd Day FR (number of rats, full responders: facial edema with edematous extremities)",observed five hours each day,0
same,"2nd Day NR (number of rats, no apparent reaction)",observed five hours each day,8
